# Calls of active or inactive are those of the source. No cut-off for these calls is given here.
# Columns and labels:
# [1] = test system: Human immunodeficiency virus 1; assay: Resistance ratio of IC50 for MLV pseudotyped HIV1 NL4-3 expressing integrase E138A mutant to IC50 for MLV pseudotyped HIV1 NL4-3 expressing wild type integrase; format: functional
# [2] = test system: Human immunodeficiency virus 1; assay: Resistance ratio of IC50 for MLV pseudotyped HIV1 NL4-3 expressing integrase N155H mutant to IC50 for MLV pseudotyped HIV1 NL4-3 expressing wild type integrase; format: functional
# [3] = test system: Human immunodeficiency virus 1; assay: Resistance ratio of IC50 for MLV pseudotyped HIV1 NL4-3 expressing integrase V72I/F121Y/T125K/V151L mutant to IC50 for MLV pseudotyped HIV1 NL4-3 expressing wild type integrase; format: functional
# [4] = test system: Human immunodeficiency virus 1; assay: Resistance ratio of IC50 for MLV pseudotyped HIV1 NL4-3 expressing integrase V72I/F121Y/T125K mutant to IC50 for MLV pseudotyped HIV1 NL4-3 expressing wild type integrase; format: functional
# [5] = test system: Human immunodeficiency virus 1; assay: Resistance ratio of IC50 for MLV pseudotyped HIV1 NL4-3 expressing integrase T125K/F121Y mutant to IC50 for MLV pseudotyped HIV1 NL4-3 expressing wild type integrase; format: functional
# [6] = test system: Human immunodeficiency virus 1; assay: Resistance ratio of IC50 for MLV pseudotyped HIV1 NL4-3 expressing integrase T66I/S153Y mutant to IC50 for MLV pseudotyped HIV1 NL4-3 expressing wild type integrase; format: functional
# [7] = test system: Human immunodeficiency virus 1; assay: Resistance ratio of IC50 for MLV pseudotyped HIV1 NL4-3 expressing integrase S153Y mutant to IC50 for MLV pseudotyped HIV1 NL4-3 expressing wild type integrase; format: functional
# [8] = test system: Human immunodeficiency virus 1; assay: Resistance ratio of IC50 for MLV pseudotyped HIV1 NL4-3 expressing integrase F121Y mutant to IC50 for MLV pseudotyped HIV1 NL4-3 expressing wild type integrase; format: functional
# [9] = test system: Human immunodeficiency virus 1; assay: Antiviral activity against HIV1 ZA97003 infected in human PBMC after 5 days by human JC53BL cell-based beta-galactosidase reporter gene assay; format: functional, organism-based; details: Human immunodeficiency virus 1, ZA97003, JC53BL, 120 h
# [10] = test system: Human immunodeficiency virus 1; assay: Antiviral activity against HIV1 UG94118 infected in human PBMC after 5 days by human JC53BL cell-based beta-galactosidase reporter gene assay; format: functional, organism-based; details: Human immunodeficiency virus 1, UG94118, JC53BL, 120 h
# [11] = test system: Human immunodeficiency virus 1; assay: Antiviral activity against HIV1 HT92599 infected in human PBMC after 5 days by human JC53BL cell-based beta-galactosidase reporter gene assay; format: functional, organism-based; details: Human immunodeficiency virus 1, HT92599, JC53BL, 120 h
# [12] = test system: Human immunodeficiency virus 1; assay: Antiviral activity against HIV1 HT92596 infected in human PBMC after 5 days by human JC53BL cell-based beta-galactosidase reporter gene assay; format: functional, organism-based; details: Human immunodeficiency virus 1, HT92596, JC53BL, 120 h
# [13] = test system: Human immunodeficiency virus 1; assay: Antiviral activity against HIV1 CMU06 infected in human PBMC after 5 days by human JC53BL cell-based beta-galactosidase reporter gene assay; format: functional, organism-based; details: Human immunodeficiency virus 1, CMU06, JC53BL, 120 h
# [14] = test system: Human immunodeficiency virus 1; assay: Antiviral activity against HIV1 BR92004 infected in human PBMC after 5 days by human JC53BL cell-based beta-galactosidase reporter gene assay; format: functional, organism-based; details: Human immunodeficiency virus 1, BR92004, JC53BL, 120 h
# [15] = test system: Human immunodeficiency virus 1; assay: Antiviral activity against HIV1 BaL infected in human PBMC after 5 days by human JC53BL cell-based beta-galactosidase reporter gene assay; format: functional, organism-based; details: Human immunodeficiency virus 1, BaL, 120 h
# [16] = test system: Human immunodeficiency virus 1; assay: Antiviral activity against HIV1 NL4-3 infected in human PBMC after 5 days by human JC53BL cell-based beta-galactosidase reporter gene assay; format: functional, organism-based; details: Human immunodeficiency virus 1, NL4-3, JC53BL, 120 h
# [17] = Selectivity ratio of CC50 for HIV1 NL4-3 infected in human MT2 cells to IC50 for human MT2 cells; format: ADME, cell-based; details: read-out: Ratio CC50/IC50
# [18] = Inhibition of DNA polymerase gamma (unknown origin); parameters: species or system Homo sapiens
# [19] = Inhibition of DNA polymerase alpha (unknown origin); parameters: species or system Homo sapiens
# [20] = Inhibition of DNA polymerase beta (unknown origin); parameters: species or system Homo sapiens
# [21] = target: Human immunodeficiency virus type 1 integrase (Human immunodeficiency virus 1, UniProt Q7ZJM1); assay: Inhibition of HIV1 HXB2 full length amino terminal 6-HIs tagged integrase expressed in Escherichia coli using [3H]thymidine-labeled DNA/biotinylated ds-DNA as substrate assessed as inhibition of strand transfer after 50 mins by scintillation proximity assay
# Chain of Human immunodeficiency virus type 1 integrase (Q7ZJM1 whole entry): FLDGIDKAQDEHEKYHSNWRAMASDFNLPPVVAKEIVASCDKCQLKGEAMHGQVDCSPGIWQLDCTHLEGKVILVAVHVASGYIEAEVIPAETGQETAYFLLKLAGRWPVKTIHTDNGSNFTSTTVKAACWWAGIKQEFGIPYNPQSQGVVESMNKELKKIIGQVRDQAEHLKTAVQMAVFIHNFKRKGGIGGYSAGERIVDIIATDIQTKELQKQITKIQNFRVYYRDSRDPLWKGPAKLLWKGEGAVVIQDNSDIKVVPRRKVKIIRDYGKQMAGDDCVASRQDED
# [22] = Intrinsic clearance in human hepatocytes assessed assessed per million of cells by LC-MS/MS analysis; format: ADME, cell-based, Hepatocyte; details: read-out: CLH
# [23] = Intrinsic clearance in human liver microsomes assessed per mg of protein by LC-MS/MS analysis in presence of UDPGA; format: ADME; details: read-out: CLH
# [24] = test system: Human immunodeficiency virus 1; assay: Antiviral activity against HIV1 NL4-3 infected in human MT2 cells after 3 days by human JC53BL cell-based beta-galactosidase reporter gene assay; format: functional, organism-based; details: Human immunodeficiency virus 1, NL4-3, JC53BL, 72 h
# [25] = Activity at UGT1A2 (unknown origin) assessed as metabolite metabolism; format: ADME; details: human
# [26] = Half life in healthy human at 100 ug, iv; format: ADME, organism-based; details: in vivo
# [27] = Volume of distribution at steady state in healthy human at 100 ug, iv; format: ADME, organism-based; details: in vivo, read-out: Vdss
# [28] = Half life in dog at 0.1 mg/kg, iv; format: ADME, organism-based, Canis lupus familiaris; parameters: dose 0.1 mg/kg, route intravenous; details: in vivo
# [29] = Volume of distribution at steady state in dog at 0.1 mg/kg, iv; format: ADME, organism-based, Canis lupus familiaris; parameters: dose 0.1 mg/kg, route intravenous; details: in vivo, read-out: Vdss
# [30] = Half life in rat at 2 mg/kg, po and 2 mg/kg, iv; format: ADME, organism-based; details: in vivo
# [31] = Volume of distribution at steady state in rat at 2 mg/kg, po and 2 mg/kg, iv; format: ADME, organism-based; details: in vivo, read-out: Vdss
# Rattus norvegicus [32] = assay: Clearance in rat at 2 mg/kg, po and 2 mg/kg, iv; format: ADME, organism-based; details: in vivo
# [33] = Plasma protein binding in dog; format: ADME, cell-free, Canis lupus familiaris; details: read-out: PPB (converted)
# [34] = Plasma protein binding in rat; format: ADME, cell-free; details: read-out: PPB
# [35] = Clearance in dog hepatocytes assessed per million of cells; format: ADME, cell-based, Canis lupus familiaris, Hepatocyte; details: read-out: CLH
# [36] = Clearance in rat hepatocytes assessed per million of cells; format: ADME, cell-based, Hepatocyte; details: read-out: CLH
# [37] = Clearance in dog liver microsomes assessed per mg of protein in presence of UDPGA; format: ADME, Canis lupus familiaris; details: read-out: CLH
# [38] = Clearance in rat liver microsomes assessed per mg of protein in presence of UDPGA; format: ADME; details: read-out: CLH
# Rattus norvegicus [39] = assay: Toxicity in rat assessed as histopathological abnormalities at 25 times antiviral IC50 administered for 7 days; format: organism-based; details: in vivo, 168 h
# [40] = Partition coefficient, pKa of the compound; format: physicochemical; details: octanol/water
# [41] = Lipophilicity, log D of the compound; format: physicochemical; details: octanol/water
# [42] = test system: Human immunodeficiency virus 1; assay: Antiviral activity against HIV1 infected in human MT2 cells assessed as emergence of breakthrough at 10 times IC50; format: functional, organism-based
# [43] = test system: Human immunodeficiency virus 1; assay: Resistance ratio of IC50 for MLV pseudotyped HIV1 NL4-3 expressing integrase Q148K mutant to IC50 for MLV pseudotyped HIV1 NL4-3 expressing wild type integrase; format: functional
# [44] = test system: Human immunodeficiency virus 1; assay: Resistance ratio of IC50 for MLV pseudotyped HIV1 NL4-3 expressing integrase G140S mutant to IC50 for MLV pseudotyped HIV1 NL4-3 expressing wild type integrase; format: functional
structure (smiles),measurement,setting,value
COc1cc(F)ccc1Cn1ccc2c3c(ncc21)C(=O)N(O)CC3 [PF-04776548],Ratio IC50,[1],<10
same,Ratio IC50,[2],<10
same,Ratio IC50,[3],<10
same,Ratio IC50,[4],<10
same,Ratio IC50,[5],<10
same,Ratio IC50,[6],<10
same,Ratio IC50,[7],<10
same,Ratio IC50,[8],<10
same,EC50,[9],0.15 nM
same,EC50,[10],6.68 nM
same,EC50,[11],0.37 nM
same,EC50,[12],0.84 nM
same,EC50,[13],0.61 nM
same,EC50,[14],0.44 nM
same,EC50,[15],2.22 nM
same,EC50,[16],0.48 nM
same,selectivity ratio,[17],4800
same,IC50,[18],7100 nM
same,IC50,[19],> 100000 nM
same,IC50,[20],> 100000 nM
same,IC50,[21],40.5 nM
same,hepatocyte CLint,[22],32.7 µL/min/1e6 cells
same,microsomal CLint,[23],28 µL/min/mg
same,IC50,[24],1.5 nM
same,Activity,[25],Not Active
same,half-life,[26],2.8 h
same,Vd,[27],5.7 L/kg
same,half-life,[28],1.2 h
same,Vd,[29],2 L/kg
same,half-life,[30],0.3 h
same,Vd,[31],3 L/kg
same,clearance,Rattus norvegicus [32],5.88 L/h/kg
same,fraction unbound,[33],0.16
same,fraction unbound,[34],0.09
same,hepatocyte CLint,[35],17 µL/min/1e6 cells
same,hepatocyte CLint,[36],33 µL/min/1e6 cells
same,microsomal CLint,[37],21 µL/min/mg
same,microsomal CLint,[38],43 µL/min/mg
same,Activity,Rattus norvegicus [39],Non-toxic
same,pKa,[40],7.6
same,logD,[41],2.1
same,Activity,[42],Active
same,Ratio IC50,[43],<10
same,Ratio IC50,[44],<10
